Drawing on US7928099B2, “Pyrimido [4,5-D] azepine derivatives as 5-HT2c agonists” (Pfizer Inc, priority 2007, dated 2011), this text covers Emax, EC50 and Ki for 18 compounds.

In assay [1] the target is T1, human recombinant 5-HT2c receptor (Homo sapiens, UniProt P28335).
T1 construct: expressed in transfected cells; host or cells: CHO K1 (Chinese hamster ovary), stably transfected
T1 sequence (P28335 33-458): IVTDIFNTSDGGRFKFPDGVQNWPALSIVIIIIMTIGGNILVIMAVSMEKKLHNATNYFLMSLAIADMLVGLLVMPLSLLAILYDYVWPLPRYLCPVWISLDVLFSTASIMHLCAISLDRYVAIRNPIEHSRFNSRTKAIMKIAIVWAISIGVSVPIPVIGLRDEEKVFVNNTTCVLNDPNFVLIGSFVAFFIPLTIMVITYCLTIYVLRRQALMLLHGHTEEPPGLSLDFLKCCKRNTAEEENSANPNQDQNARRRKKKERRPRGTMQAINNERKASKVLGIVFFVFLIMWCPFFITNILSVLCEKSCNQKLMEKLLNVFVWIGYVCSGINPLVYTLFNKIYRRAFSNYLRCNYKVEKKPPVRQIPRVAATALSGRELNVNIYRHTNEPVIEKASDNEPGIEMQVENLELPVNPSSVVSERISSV
The assay can be described thus: FLIPR fluorescent Ca2+ mobilisation agonist assay in CHO K1 cells (Method 1). It counts as cell-based. The settings on record: for Emax: percentage of mean maximal response to 10 μM 5-HT; for EC50: agonist affinity, FLIPR. On the procedure: (§1) The compounds of the invention were evaluated for biological activity by measuring the agonist affinity (EC50) and efficacy (Emax) at the human recombinant 5-HT2c receptor expressed in CHO K1 cells, using a fluorescent based Ca^2+ mobilisation assay format compatible with FLIPR technology (Method 1). Additionally, the binding activity of a compound was determined by measuring its affinity for the human recombinant 5-HT2c receptor membranes from Swiss 3T3 cells (Method 2).
The agonist affinity of the compounds were tested by measuring their ability to induce a fluorescent based Ca^2+ mobilization signal in a FLIPR assay using CHO K1 cells expressing recombinant human 5-HT2C receptor. Both agonist affinity (EC50) and efficacy (Emax) were determined.
Chinese hamster ovary cells (CHO K1) stably transfected with the 5-HT2c receptor were cultured under standard cell culture techniques. Specifically, cells were grown at 37° C. and 5% CO2 in Dulbecco's Modified Eagle's Medium (DMEM) culture media supplemented with 10% dialysed foetal calf serum (FCS), 1% non-essential amino acids, 1 mM sodium pyruvate, 800 μg/mL geneticin and 50 μg/ml zeocin. Cells were harvested for passaging and storage using trypsin-EDTA, centrifugation and resuspension in culture medium. Cells were grown to 60-80% confluency, harvested and adjusted to 15-20×10^6 cells/ml/vial in medium/10% DMSO and stored long-term at −80° C.
Cells were seeded into black-walled clear-bottomed 384 well plates 24 h before use. Frozen cells were defrosted in a 37° C. water bath and immediately transferred into 1 mL/vial 37° C. culture medium, diluted to 10 ml and DMSO removed by centrifugation. The cells were resuspended in 15 ml/vial of cell culture medium, counted and adjusted to give 500,000 cells/mL (10,000 cells/well). […] of cell suspension was added to the 384 well plates which were then incubated overnight at 37° C.
The maximum agonist response was determined with 5-HT at a final assay concentration of 10 μM in the diluent above. The minimum response was determined with Dulbeccos PBS (+CaCl2, +MgCl2) with 0.9% DMSO and 0.05% pluronic F-127. Test compounds, maximum and minimum controls were added to a 384 well polypropylene plate.
The FLIPR calcium assay reagent was diluted with assay buffer (Hank's Balanced Salt Solution (HBSS))/20 mM HEPES and 2.5 mM probenecid (diluted with 1M Sodium hydroxide and DPBS (+CaCl2, +MgCl2)).
20 μl/well FLIPR calcium assay reagent was added to the cell plates, which were incubated for 1 h at 37° C. Cell plates and compound plates were then transferred onto the FLIPR. The assay was run using the appropriate FLIPR program, which initiates the reaction by transferring 15 μL compound into the corresponding, well of the cell plate.
The statistical parameter exported from each well was the max peak height of the response.

For assay [2], the target named is T1, human recombinant 5-HT2c receptor. The experiment in a line: 3H-meselurgine radioligand binding SPA, membranes from Swiss 3T3 cells (Method 2). The settings on record: 3H-meselurgine displacement, Cheng-Prusoff; Swiss 3T3 membranes; read-out: Binding Affinity Ki. The method, then:
as §1
The compounds were tested for biological activity by their ability to inhibit binding of the radioligand ^3H-meselurgine at the human recombinant 5-HT2C receptor expressed in the Swiss 3T3 cells using a scintillation proximity assay (SPA) technology.
Swiss 3T3 stably transfected with the 5-HT2C receptor were cultured under standard cell culture techniques. Specifically, cells were grown in 50 mL growth medium (Dulbecco's Modified Eagle's Medium (DMEM) culture media supplemented with 10% dialysed foetal calf serum (FCS), 2 mM penicillin/streptomycin and 20 μg/mL geneticin) in 225 cm^2 flasks at 37° C. and 5% CO2. Cells were grown to 60-80% confluency, harvested using trypsin-EDTA and pelleted by centrifugation for long-term storage at −80° C.
Cell pellets were thawed on ice and resuspended in 3 mL of membrane preparation buffer (see Media and Buffers for composition) per 1 mL of packed cell. The suspension was homogenised on ice for several 5 s intervals using a hand-held homogeniser. The homogenate was then centrifuged at 1,000 rpm for 5 min at 4° C.
The supernatants were then collected and retained. Initial cell & nuclei pellets (P1) were subsequently rehomogenised and centrifuged using the conditions cited above, and the supernatants collected and pooled with those retained from the first spin.
The pooled supernatants were centrifuged at 19,500 rpm for 45 min at 4° C., and the supernatants discarded. The pellets (P2) were then resuspended in 3 mL of membrane preparation buffer per 1 mL of the original packed cell volume. Protein concentrations were subsequently measured and the membrane suspension was finally frozen in aliquots of set volume and stored at −80° C. prior to use in assays.
For each batch of membrane used, optimal concentrations of Polylysine YSi SPA beads and membrane were determined. The assay free radioligand concentration was expressed as a percentage of the total free radioligand concentration to give an estimate of the radioligand depletion.
The affinity of ^3H-meselurgine for the human recombinant 5-HT2c receptor was determined for each membrane batch at the selected protein and bead concentrations. […] The mean KD for ^3H-meselurgine at a batch of membranes was determined from data from a minimum of three separate assays.
The required amount of membrane, was thawed on ice and added to a pre-determined volume of bead suspension in 50 mM HEPES buffer, pH 7.4. The beads were then pre-coupled by incubating the predetermined protein quantity per mg of bead on a roller 4° C. for 1 h. Subsequently, the bead/membrane complex was spun down at 1000 rpm for 5 min. The resulting pellet was resuspended in assay buffer at the specific concentration required for the final assay.
An aliquot of [^3H]-meselurgine stock was diluted in binding assay buffer to give a pre-determined final assay concentration less than the equilibrium dissociation constant (KD) value.
All test compounds were prepared at a concentration of 4 mM in 100% dimethyl sulphoxide (DMSO) from dry samples.
The same volume of assay buffer was added to specific wells of the plate to enable subsequent measurement of total radioligand binding. Furthermore, 5 μL of Mianserin at 25 μM (2.5 μM final assay concentration was subsequently added to pre-determined wells to determine non-specific binding (NSB).

Counter-ions that a name gives are not always drawn.

With `OC1CCN(c2nc(Cc3ccccc3)nc3c2CCNCC3)C1` (centres unmarked) [Example 44, 1-(2-benzyl-6,7,8,9-tetrahydro-5H-pyrimido[4,5-d]azepin-4-yl)pyrrolidin-3-ol hydrochloride], the maximal effect (Emax) in assay [1] (CHO-K1, efficacy) came to 75.5%. Besides, in assay [1], the concentration giving a half-maximal response (EC50) amounted to 136 nM. In addition, the inhibition constant (Ki) in assay [2] is 139 nM.

For `c1ccc(C2(c3nc4c(c(N5CCOCC5)n3)CCNCC4)CC2)cc1` [Example 13, 4-Morpholin-4-yl-2-(1-phenylcyclopropyl)-6,7,8,9-tetrahydro-5H-pyrimido[4,5-d]azepine], the Emax in assay [1] (CHO-K1, efficacy) was found to be 64.4%. For the same compound, in assay [1], the EC50 was determined as 499 nM. Also, in assay [2], the Ki was 2300 nM.

Take `C[C@H]1COCCN1c1nc(Cc2ccccc2)nc2c1CCNCC2` [Example 45, 2-benzyl-4-[(3S)-3-methylmorpholin-4-yl]-6,7,8,9-tetrahydro-5H-pyrimido[4,5-d]azepine hydrochloride]: the maximal effect (Emax) in assay [1] (CHO-K1, efficacy) came to 88.4%. Besides, the EC50 in assay [1] was determined as 69.5 nM. In addition, the inhibition constant (Ki) in assay [2] worked out at 28.4 nM.

As for `c1ccc(CNc2nc(N3CCC3)nc3c2CCNCC3)cc1` [Example 108, 2-azetidin-1-yl-N-benzyl-6,7,8,9-tetrahydro-5H-pyrimido[4,5-d]azepin-4-amine], the Emax in assay [1] (CHO-K1, efficacy) was 44.4%. In addition, the 50% effective concentration (EC50) in assay [1] is 149 nM.

Turning to `CN1CCC(COc2nc(Cc3ccccc3)nc3c2CCNCC3)CC1` [Example 85, 2-benzyl-4-[(1-methyl-piperidin-4-yl)methoxy]-6,7,8,9-tetrahydro-5H-pyrimido[4,5-d]azepine], in assay [1] (CHO-K1, efficacy), the maximum response (Emax) turned out to be 86.3%. Moreover, the EC50 in assay [1] is 421 nM.

For `c1ccc(CCNc2nc(N3CCSCC3)nc3c2CCNCC3)cc1` [Example 91, N-(2-phenylethyl)-2-thiomorpholin-4-yl-6,7,8,9-tetrahydro-5H-pyrimido-[4,5-d]azepin-4-amine], the Emax in assay [1] (CHO-K1, efficacy) amounted to 69.6%. The EC50 in assay [1] was determined as 186 nM.

As for `CCN(C)c1nc2c(c(N(C)C)n1)CCNCC2` [Example 100, N-2-ethyl-N-2,N-4,N-4-trimethyl-6,7,8,9-tetra-hydro-5H-pyrimido-[4,5-d]azepine-2,4-diamine], the maximal effect (Emax) in assay [1] (CHO-K1, efficacy) was found to be 51.2%. Also, the concentration for a half-maximal effect (EC50) in assay [1] was determined as 122 nM.

Turning to `CCN(C)c1nc(N2CCSCC2)nc2c1CCNCC2` [Example 92, N-ethyl-N-methyl-2-thiomorpholin-4-yl-6,7,8,9-tetrahydro-5H-pyrimido-[4,5-d]azepin-4-amine], the Emax in assay [1] (CHO-K1, efficacy) was determined as 77.3%. Further, the half-maximal effective concentration (EC50) in assay [1] worked out at 90 nM.

Regarding `CNc1nc(C(C)c2ccccc2)nc2c1CCNCC2` (centres unmarked) [Example 3, N-methyl-2-(1-phenylethyl)-6,7,8,9-tetrahydro-5H-pyrimido[4,5-d]azepin-4-amine], in assay [1] (efficacy), the Emax was 60.8%.

For `c1ccc2c(c1)CCN(c1nc3c(c(N4CCSCC4)n1)CCNCC3)C2` [Example 88, 2-(3,4-dihydroisoquinolin-2(1H)-yl)-4-thiomorpholin-4-yl-6,7,8,9-tetrahydro-5H-pyrimido[4,5-d]-azepin-4-amine], the Emax in assay [1] (CHO-K1, efficacy) worked out at 67.6%. For the same compound, the EC50 in assay [1] turned out to be 838 nM.

As to `CC(C)COc1nc(Cc2ccccc2)nc2c1CCNCC2` [Example 76, 2-benzyl-4-isobutoxy-6,7,8,9-tetrahydro-5H-pyrimido[4,5-d]azepine], the Emax in assay [1] (CHO-K1, efficacy) was determined as 34%. Further, the EC50 in assay [1] amounted to 127 nM.

`CCCNc1nc(N(C)CC2CC2)nc2c1CCNCC2` [Example 103, N-2-(cyclopropylmethyl)-N-2-methyl-N-4-propyl-6,7,8,9-tetrahydro-5H-pyrimido[4,5-d]azepine-2,4-diamine]: the Emax in assay [1] (CHO-K1, efficacy) came to 32.7%. In addition, the EC50 in assay [1] was 449 nM.

On to `CN(C)c1nc(N2CCOCC2)nc2c1CCNCC2` [Example 97, N,N-dimethyl-2-morpholin-4-yl-6,7,8,9-tetrahydro-5H-pyrimido-[4,5-d]azepin-4-amine], for which the Emax in assay [1] (CHO-K1, efficacy) is 84.6%. Moreover, the half-maximal effective concentration (EC50) in assay [1] is 67.6 nM.

For `CC(COc1nc(Cc2ccccc2)nc2c1CCNCC2)N(C)C` (centres unmarked) [Example 83, 1-[(2-benzyl-6,7,8,9-tetrahydro-5H-pyrimido-[4,5-d]azepin-4-yl)oxy]-N,N-dimethylpropan-2-amine], the Emax in assay [1] (CHO-K1, efficacy) was 45.7%. Further, in assay [1], the EC50 was found to be 338 nM.

For `CCN(C)c1nc2c(c(NCC3CC3)n1)CCNCC2` [Example 99, N-4-(cyclopropylmethyl)-N-2-ethyl-N-2-methyl-6,7,8,9-tetrahydro-5H-pyrimido[4,5-d]azepin-4-amine], the maximal effect (Emax) in assay [1] (CHO-K1, efficacy) turned out to be 69.5%. Further, the EC50 in assay [1] turned out to be 103 nM.

As to `CCNc1nc2c(c(N(C)CC3CC3)n1)CCNCC2` [Example 112, N-4-(cyclopropylmethyl)-N-2-ethyl-N-4-methyl-6,7,8,9-tetrahydro-5H-pyrimido[4,5-d]azepine-2,4-diamine], in assay [1] (CHO-K1, efficacy), the maximal effect (Emax) is 42.8%. Moreover, the 50% effective concentration (EC50) in assay [1] is 543 nM.

On to `CC(CN1CCOCC1)Oc1nc(Cc2ccccc2)nc2c1CCNCC2` (centres unmarked) [Example 82, 2-benzyl-4-(1-methyl-2-morpholin-4-ylethoxy)-6,7,8,9-tetrahydro-5H-pyrimido[4,5-d]azepine], for which the maximal response (Emax) in assay [1] (CHO-K1, efficacy) was determined as 71.9%. The EC50 in assay [1] turned out to be 304 nM.

Regarding `CN1CCC[C@H]1COc1nc(Cc2ccccc2)nc2c1CCNCC2` [Example 78, 2-benzyl-4-{[(2S)-1-methylpyrrolidin-2-yl]methoxy}-6,7,8,9-tetrahydro-5H-pyrimido[4,5-d]azepine], in assay [1] (CHO-K1, efficacy), the Emax stood at 69.5%. Besides, the EC50 in assay [1] is 138 nM.
